Test system: HCV genotype 1b replicon in Huh 7 cells
Test: HCV replicon assay (1b_Huh-Luc/Neo-ET cell line, luciferase readout)
Assay type: cell-based
Settings: Hepatitis C virus, Huh-7; HCV 1b replicon; read-out: Inhibition of HCV genotype 1b
How it was run: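 Replicon level was read as luciferase signal after 72 h compound exposure, triplicate wells, starting the day after cells were plated. Cell line: 1b_Huh-Luc/Neo-ET. Values normalised to control as percent, and EC50 fitted with a variable-slope sigmoid; determinations repeated.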

Compound | EC50
COC(=O)N[C@H](C(=O)N1CCC[C@H]1CNC(=O)c1ccc2cc(-c3ccc(-c4cnc([C@@H]5CCCN5C(=O)[C@@H](NC(=O)OC)[C@@H](C)OC)[nH]4)cc3)ccc2c1)[C@@H](C)OC [compound 575] | < 1 nM
COC(=O)N[C@@H](C(=O)N1CCC[C@H]1CNC(=O)c1ccc2cc(-c3ccc(-c4cnc([C@@H]5CCCN5C(=O)[C@H](NC(=O)OC)c5ccccc5)[nH]4)cc3)ccc2c1)c1ccccc1 [compound 577] | < 1 nM
COC(=O)N[C@H](C(=O)N1CCC[C@H]1C(=O)Nc1ccc(-c2ccc3cc(-c4cnc([C@@H]5CCCN5C(=O)[C@@H](NC(=O)OC)[C@@H](C)OC)[nH]4)ccc3c2)cc1)[C@@H](C)OC [compound 578] | < 1 nM
COC(=O)N[C@H](C(=O)N1CCC[C@H]1c1ncc(-c2ccc3cc(-c4cc5[nH]c([C@@H]6CCCN6C(=O)[C@@H](NC(=O)OC)C(C)C)nc5cc4F)ccc3c2)[nH]1)C(C)C [compound 700] | < 1 nM
COC(=O)N[C@H](C(=O)N1CCC[C@H]1c1ncc(-c2ccc3cc(-c4cc5[nH]c([C@@H]6CCCN6C(=O)[C@@H](NC(=O)OC)[C@@H](C)OC)nc5cc4F)ccc3c2)[nH]1)[C@@H](C)OC [compound 701] | < 1 nM
COC(=O)N[C@H](C(=O)N1CCC[C@H]1c1ncc(-c2ccc3cc(-c4cc5[nH]c([C@@H]6CCCN6C(=O)[C@@H](NC(=O)OC)C6CCOCC6)nc5cc4F)ccc3c2)[nH]1)C1CCOCC1 [compound 702] | < 1 nM
CC[C@H](C)[C@H](NC(=O)OC)C(=O)N1CCC[C@H]1c1ncc(-c2ccc3cc(-c4cc5[nH]c([C@@H]6CCCN6C(=O)[C@@H](NC(=O)OC)[C@@H](C)CC)nc5cc4F)ccc3c2)[nH]1 [compound 703] | < 1 nM
